Test results reported in article PMC9386376, “Discovery of spirooxindole-derived small-molecule compounds as novel HDAC/MDM2 dual inhibitors and investigation of their anticancer activity” (Frontiers in Oncology, 2022).

What was measured:
GST-tagged MDM2 = target: T1, GST-tagged MDM2 (Homo sapiens, UniProt Q00987); experiment: HTRF enzyme inhibition assay, MDM2; assay type: biochemical; settings: compound at 1 μM
T1 construct: purchased Cisbio Co. Ltd
Procedure: The enzymatic assay of test compounds is using the HTRF-based method provided by Cisbio Co. Ltd. In brief, the target compounds to be tested were prepared into samples with a concentration of 1 μM, which was added to GST-tagged MDM2 and HDAC1 proteins, respectively, then biotinylated substrate p53 peptide and HTRF detection reagents were added. The data obtained were processed by the ratio method, and the inhibition rates of MDM2 and HDAC1 were calculated. The detailed experimental procedures are according to the manufacturer’s protocols.

HDAC1 = HDAC1 (Homo sapiens, UniProt Q13547); experiment: HTRF enzyme inhibition assay, HDAC1; settings: for inhibition at 1 µM: read-out: % enzyme inhibition HDAC; for % enzyme inhibition HDAC: compound at 1 μM, HTRF, method names HDAC1 protein
HDAC1, sequence (Q13547 whole entry): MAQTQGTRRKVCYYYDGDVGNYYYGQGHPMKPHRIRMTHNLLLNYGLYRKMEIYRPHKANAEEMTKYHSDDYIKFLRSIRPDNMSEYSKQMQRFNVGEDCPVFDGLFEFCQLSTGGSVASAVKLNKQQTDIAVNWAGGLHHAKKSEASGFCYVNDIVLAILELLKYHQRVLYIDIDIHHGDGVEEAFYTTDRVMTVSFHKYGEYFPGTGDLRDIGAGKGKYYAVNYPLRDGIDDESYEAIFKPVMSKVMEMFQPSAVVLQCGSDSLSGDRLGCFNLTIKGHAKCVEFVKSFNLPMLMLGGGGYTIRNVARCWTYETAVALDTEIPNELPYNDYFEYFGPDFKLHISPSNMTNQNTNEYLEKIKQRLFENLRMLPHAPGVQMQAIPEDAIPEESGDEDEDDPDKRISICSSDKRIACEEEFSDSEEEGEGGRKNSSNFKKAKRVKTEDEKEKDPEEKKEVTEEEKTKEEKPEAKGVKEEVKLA

T1 sequence (Q00987 whole entry): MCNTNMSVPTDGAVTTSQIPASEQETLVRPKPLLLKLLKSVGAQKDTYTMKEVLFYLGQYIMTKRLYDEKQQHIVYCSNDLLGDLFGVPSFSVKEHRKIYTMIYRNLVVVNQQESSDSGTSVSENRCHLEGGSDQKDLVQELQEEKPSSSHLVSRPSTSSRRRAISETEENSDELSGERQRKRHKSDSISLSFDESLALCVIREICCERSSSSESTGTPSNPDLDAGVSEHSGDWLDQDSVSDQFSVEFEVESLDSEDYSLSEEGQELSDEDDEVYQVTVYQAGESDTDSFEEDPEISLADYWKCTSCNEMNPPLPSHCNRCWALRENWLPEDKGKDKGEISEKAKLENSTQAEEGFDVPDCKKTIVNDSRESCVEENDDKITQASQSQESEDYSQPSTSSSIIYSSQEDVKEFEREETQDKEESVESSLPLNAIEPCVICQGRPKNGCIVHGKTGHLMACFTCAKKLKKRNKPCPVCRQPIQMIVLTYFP

Cc1cccc2c1NC(=O)[C@@]21[C@@H](C(=O)c2ccccc2)[C@H](c2ccc(NC(=O)CCCCCCC(=O)NO)cc2)[C@H]2CSCN21 [7h, N^1-(4-((3R,6'S,7'R,7a'S)-6'-benzoyl-7-methyl-2-oxo-1',6',7',7a'-tetrahydro-3'H-spiro[indoline-3,5'-pyrrolo[1,2-c]thiazol]-7'-yl)phenyl)-N^8-hydroxyoctanediamide]
inhibition at 1 µM (GST-tagged MDM2): 23%
inhibition at 1 µM (HDAC1): 71%
melting point: 142.7 to 143.9 °C

O=C(CCCCC(=O)Nc1ccc([C@@H]2[C@H]3CSCN3[C@]3(C(=O)Nc4cc(Cl)ccc43)[C@H]2C(=O)c2ccccc2)cc1)NO [7r, N^1-(4-((3R,6'S,7'R,7a'S)-6'-benzoyl-6-chloro-2-oxo-1',6',7',7a'-tetrahydro-3'H-spiro[indoline-3,5'-pyrrolo[1,2-c]thiazol]-7'-yl)phenyl)-N^6-hydroxyadipamide]
inhibition at 1 µM (GST-tagged MDM2): 61%
inhibition at 1 µM (HDAC1): 55%
melting point: 160.6 to 161.9 °C

O=C(CCCCCCCCC(=O)Nc1ccc([C@@H]2[C@H]3CSCN3[C@]3(C(=O)Nc4cc(Cl)ccc43)[C@H]2C(=O)c2ccccc2)cc1)NO [7s, N^1-(4-((3R,6'S,7'R,7a'S)-6'-benzoyl-6-chloro-2-oxo-1',6',7',7a'-tetrahydro-3'H-spiro[indoline-3,5'-pyrrolo[1,2-c]thiazol]-7'-yl)phenyl)-N^10-hydroxydecanediamide]
inhibition at 1 µM (GST-tagged MDM2): 59%
inhibition at 1 µM (HDAC1): 68%
melting point: 137.7 to 139 °C

N^1-(4-((3R,6'S,7'R,7a'S)-6-chloro-6'-(furan-2-carbonyl)-2-oxo-1',6',7',7a'-tetrahydro-3'H-spiro[indoline-3,5'-pyrrolo[1,2-c]thiazol]-7'-yl)phenyl)-N^6-hydroxyadipamide [15b]
% enzyme inhibition MDM2 (GST-tagged MDM2): 48%
% enzyme inhibition HDAC (HDAC1): 70%

Nc1ccccc1NC(=O)CCC(=O)Nc1ccc([C@@H]2[C@H]3CSCN3[C@]3(C(=O)Nc4ccccc43)[C@H]2C(=O)c2ccccc2)cc1 [9a, N^1-(2-aminophenyl)-N^4-(4-((3R,6'S,7'R,7a'S)-6'-benzoyl-2-oxo-1',6',7',7a'-tetrahydro-3'H-spiro[indoline-3,5'-pyrrolo[1,2-c]thiazol]-7'-yl)phenyl)succinamide]
inhibition at 1 µM (GST-tagged MDM2): 50%
inhibition at 1 µM (HDAC1): 37%
melting point: 149.1 to 150.2 °C

O=C(CCCCCCC(=O)Nc1ccc([C@@H]2[C@H]3CSCN3[C@]3(C(=O)Nc4ccccc43)[C@H]2C(=O)c2ccccc2)cc1)NO [7a, N^1-(4-((3R,6'S,7'R,7a'S)-6'-benzoyl-2-oxo-1',6',7',7a'-tetrahydro-3'H-spiro[indoline-3,5'-pyrrolo[1,2-c]thiazol]-7'-yl)phenyl)-N^8-hydroxyoctanediamide]
inhibition at 1 µM (GST-tagged MDM2): 39%
inhibition at 1 µM (HDAC1): 69%
melting point: 144.7 to 146.1 °C

COc1ccc2c(c1)NC(=O)[C@@]21[C@@H](C(=O)c2ccccc2)[C@H](c2ccc(NC(=O)CCCCCCC(=O)NO)cc2)[C@H]2CSCN21 [7k, N^1-(4-((3R,6'S,7'R,7a'S)-6'-benzoyl-6-methoxy-2-oxo-1',6',7',7a'-tetrahydro-3'H-spiro[indoline-3,5'-pyrrolo[1,2-c]thiazol]-7'-yl)phenyl)-N^8-hydroxyoctanediamide]
inhibition at 1 µM (GST-tagged MDM2): 54%
inhibition at 1 µM (HDAC1): 70%

N^1-(4-((3R,6'S,7'R,7a'S)-6-chloro-6'-(4-(dimethylamino)benzoyl)-2-oxo-1',6',7',7a'-tetrahydro-3'H-spiro[indoline-3,5'-pyrrolo[1,2-c]thiazol]-7'-yl)phenyl)-N^6-hydroxyadipamide [7y]
% enzyme inhibition MDM2 (GST-tagged MDM2): 54%
% enzyme inhibition HDAC (HDAC1): 71%

N^1-(4-((3R,6'S,7'R,7a'S)-6-chloro-2-oxo-6'-(thiophene-2-carbonyl)-1',6',7',7a'-tetrahydro-3'H-spiro[indoline-3,5'-pyrrolo[1,2-c]thiazol]-7'-yl)phenyl)-N^6-hydroxyadipamide [15c]
% enzyme inhibition MDM2 (GST-tagged MDM2): 49%
% enzyme inhibition HDAC (HDAC1): 70%
